Read-outs that look alike come from different tables or passages of the source.
Assays:
[1] = system: Influenza virus B/Lee/40 (Lee); assay: microbe, parasite or virus in culture; type: cell-based; conditions: for EC50: read-out: Antiviral activity (EC50) Flu B Lee; for Selectivity index Flu B Lee: MDCK cells
[2] = system: Influenza virus A/Puerto Rico/8/34 (PR8; H1N1); assay: organism not typed; type: cell-based; conditions: for EC50: read-out: Antiviral activity (EC50) Flu A H1N1 PR8; for Selectivity index Flu A H1N1 PR8: MDCK cells
[3] = in vitro; conditions: dog
[4] = system: Influenza virus A/Hong Kong/8/68 (HK: H3N2); assay: organism not typed; type: cell-based; conditions: for Selectivity index Flu A H3H2 Hong Kong: MDCK cells; for EC50: read-out: Antiviral activity (EC50) Flu A H3N2 Hong Kong
[5] = system: Vero cells; conditions: for CC50: read-out: CC50, cytotoxicity, 2 days
[6] = system: DENV-2 replicon; assay: microbe, parasite or virus in culture; type: cell-based; conditions: for S.I., Selectivity index = CC50/EC50: DENV-2, BHK-21 cells
[7] = Cytotoxicity in mock-infected MDCK cells (MTT); conditions: dog, mock-infected MDCK cells
[8] = system: SARS-COV-2 (BetaCoV/Korea/KCDC03/2020); assay: Image-based anti-SARS-COV-2 assay in Vero cells (anti-spike antibody); type: cell-based
[9] = system: DENV-2 replicon BHK-21 (DENV2-BHK) cells; assay: MTT cytotoxicity assay in DENV-2 replicon BHK-21 cells; conditions: for CC50: read-out: CC50, 50% cytotoxic concentration, BHK-21 cells, MTT
[10] = in vitro; conditions: for CC50: African green monkey
[11] = MTT cytotoxicity assay in DENV-2 replicon BHK-21 cells; conditions: hamster
[12] = system: MDCK cells; assay: Cytotoxicity in mock-infected MDCK cells (MTT); conditions: read-out: Toxicity (CC50); MDCK cells, 3 days
[13] = unidentified influenza virus, MDCK, 72 h
[14] = Dengue virus, DENV2, BHK-21, read-out: EC50, 50% effective concentration, anti-DENV-2 activity
[15] = Severe acute respiratory syndrome coronavirus 2, Vero, 48 h
[16] = read-out: EC50, 50% effective concentration, anti-DENV-2 activity, DENV-2 replicon BHK-21 cells, luciferase

With `NC12CC3CC(CC(C3)C1)C2` [AMT, Amantadine] the EC50 [1, 13] was > 100 µM, the EC50 ([2]; MDCK, 72 h) was > 100 µM and the CC50 [3] was > 100 µM. The “Selectivity index Flu A H3H2 Hong Kong” value [4] was >15.6 and the EC50 ([4]; MDCK, 72 h) was 6.4 µM.
In the case of `CC(C)C(=O)ONc1ccn([C@@H]2O[C@H](CO)[C@@H](O)[C@H]2O)c(=O)n1` [Compound 5a, 1-((2R,3R,4S,5R)-3,4-Dihydroxy-5-(hydroxymethyl)tetrahydrofuran-2-yl)-4-((isobutyryloxy)amino)pyrimidin-2 (1H)-one], the “Selectivity index Flu B Lee” value [1] is reported as >29.4, the EC50 [1, 13] is reported as 3.4 µM and the “Selectivity index Flu A H1N1 PR8” value [2] is reported as >17.2. The EC50 ([2]; MDCK, 72 h) was 5.8 µM, the “Cytotoxicity improved compared to the parent Compound 6” value ([5]; SARS-COV-2 test) was ≥ 6 times and the “Selectivity index Flu A H3H2 Hong Kong” value [4] was >13.7. For the same compound, the EC50 ([4]; MDCK, 72 h) was 7.3 µM, the “S.I., Selectivity index = CC50/EC50” value [6] was 2.74 and the “EC50 value improved over the ester precursor 7” value ([6]; DENV-2 replicon) was “about 6 fold”. For the same compound, the “EC50 value increased compared to the parent Compound 6” value ([6]; DENV-2 replicon) was “about 2 fold”, the EC50 [6, 14] was 3.95 µM and the CC50 at 3 days [7] was > 100 µM. For the same compound, the “Antiviral activity improved compared to the parent Compound 6” value ([8]; SARS-COV-2) was “about 5 times”, the “Antiviral activity improved over the other ester precursor 7” value ([8]; SARS-COV-2) was 3.5 fold and the EC50 [8, 15] was 3.5 µM. The “Cytotoxicity reduced compared to the parent Compound 6” value ([9]; DENV-2 replicon cells) was 2 fold, the CC50 [9] was 10.8 µM and the CC50 [10] was > 100 µM. The CC50 at 2 days ([10]; chlorocebus sabaeus) was > 100 µM.
In the case of `O=c1nc(NCCO)ccn1[C@@H]1O[C@H](CO)[C@@H](O)[C@H]1O` [Compound 5b, 1-((2R,3R,4S,5R)-3,4-Dihydroxy-5-(hydroxymethyl)tetrahydrofuran-2-yl)-4-((2-hydroxyethyl)amino)pyrimidin-2 (1H)-one], the EC50 [1, 13] is reported as > 100 µM, the “Anti-Flu A/B activity (in words)” value ([2]; Flu A (H1N1, H3N2) and Flu B together) is reported as “did not exhibit significant anti-Flu A/B activity” and the EC50 ([2]; MDCK, 72 h) is reported as > 100 µM. For the same compound, the CC50 at 3 days [3] was > 100 µM, the EC50 ([4]; MDCK, 72 h) was > 100 µM and the “Anti-DENV activity in replication assays (in words)” value ([6]; DENV-2 replicon) was “did not exhibit significant anti-DENV activity”. For the same compound, the EC50 [6, 14] was > 100 µM, the EC50 [8, 15] was > 100 µM and the “Biological SARS-COV-2 activity (in words)” value ([8]; Vero cells) was “did not show significant biological SARS-COV-2 activity”. The CC50 [11] was > 100 µM and the CC50 [10] was > 100 µM.
With `CCOC(=O)CNc1ccn([C@@H]2O[C@H](CO)[C@@H](O)[C@H]2O)c(=O)n1` [Compound 5c, Ethyl(1-((2R,3R,4S,5R)-3,4-dihydroxy-5-(hydroxymethyl)tetrahydrofuran-2-yl)-2-oxo-1,2-dihydropyrimidin-4-yl)glycinate] the EC50 [1] was > 100 µM, the EC50 [2] was > 100 µM and the CC50 [5] was > 100 µM. The EC50 [4] was > 100 µM, the EC50 [6, 16] was > 100 µM and the CC50 [12] was > 100 µM. The EC50 [8] was > 100 µM and the CC50 [9] was > 100 µM.
For `CCOC(=O)[C@H](C)Nc1ccn([C@@H]2O[C@H](CO)[C@@H](O)[C@H]2O)c(=O)n1` [Compound 5d, Ethyl(1-((2R,3R,4S,5R)-3,4-dihydroxy-5-(hydroxymethyl)tetrahydrofuran-2-yl)-2-oxo-1,2-dihydropyrimidin-4-yl)-L-alaninate], the EC50 [1] was > 100 µM, the EC50 [2] was > 100 µM and the CC50 [5] was > 100 µM. The EC50 [4] was > 100 µM, the EC50 [6, 16] was > 100 µM and the CC50 [12] was > 100 µM. For the same compound, the EC50 [8] was > 100 µM and the CC50 [9] was > 100 µM.
In the case of `CCOC(=O)[C@H](CC(C)C)Nc1ccn([C@@H]2O[C@H](CO)[C@@H](O)[C@H]2O)c(=O)n1` [Compound 5e, Ethyl(1-((2R,3R,4S,5R)-3,4-dihydroxy-5-(hydroxymethyl)tetrahydrofuran-2-yl)-2-oxo-1,2-dihydropyrimidin-4-yl)-L-leucinate], the EC50 [1] is reported as > 100 µM, the EC50 [2] is reported as > 100 µM and the CC50 [5] is reported as > 100 µM. The EC50 [4] was > 100 µM, the EC50 [6, 16] was > 100 µM and the CC50 [12] was > 100 µM. The EC50 [8] was > 100 µM and the CC50 [9] was > 100 µM.
In the case of `CCOC(=O)[C@H](Cc1ccccc1)Nc1ccn([C@@H]2O[C@H](CO)[C@@H](O)[C@H]2O)c(=O)n1` [Compound 5f, Ethyl(1-((2R,3R,4S,5R)-3,4-dihydroxy-5-(hydroxymethyl)tetrahydrofuran-2-yl)-2-oxo-1,2-dihydropyrimidin-4-yl)-L-phenylalaninate], the EC50 [1] is reported as > 100 µM, the EC50 [2] is reported as > 100 µM and the CC50 [5] is reported as > 100 µM. For the same compound, the EC50 [4] was > 100 µM, the EC50 [6, 16] was > 100 µM and the CC50 [12] was > 100 µM. The EC50 [8] was > 100 µM and the CC50 [9] was > 100 µM.
In the case of `O=c1nc(NO)ccn1[C@@H]1O[C@H](CO)C(O)[C@@H]1O` (stereo partly drawn) [Compound 6, β-D-N^4-hydroxycytidine, reference compound], the EC50 [1, 13] is reported as < 1.2 µM, the “Selectivity index Flu A H1N1 PR8” value [2] is reported as >58.8 and the EC50 ([2]; MDCK, 72 h) is reported as 1.7 µM. The CC50 at 3 days [3] was > 100 µM, the “Selectivity index Flu A H3H2 Hong Kong” value [4] was >43.5 and the EC50 ([4]; MDCK, 72 h) was 2.3 µM. The “S.I., Selectivity index = CC50/EC50” value [6] was 2.02, the EC50 [6, 14] was 2.84 µM and the EC50 [8, 15] was > 16.5 µM. The CC50 [11] was 5.75 µM and the CC50 [10] was 16.5 µM.
With `CC(C)C(=O)OC[C@H]1O[C@@H](n2ccc(NO)nc2=O)[C@@H](O)C1O` (stereo partly drawn) [Compound 7, reference compound] the “Selectivity index Flu B Lee” value [1] was >4.2, the EC50 [1, 13] was 23.8 µM and the “Selectivity index Flu A H1N1 PR8” value [2] was >15.2. For the same compound, the EC50 ([2]; MDCK, 72 h) was 6.6 µM, the “Selectivity index Flu A H3H2 Hong Kong” value [4] was >16.7 and the EC50 ([4]; MDCK, 72 h) was 6 µM. For the same compound, the “S.I., Selectivity index = CC50/EC50” value [6] was 1.81, the EC50 [6, 14] was 23.4 µM and the CC50 at 3 days [7] was > 100 µM. The EC50 [8, 15] was 11.8 µM, the CC50 [11] was 42.2 µM and the CC50 [10] was > 100 µM.
In the case of `NC(=O)c1nc(F)cnc1O` [Compound T-705, 6-fluoro-3-hydroxy-2-pyrazinecarboxamide, reference compound], the “Selectivity index Flu B Lee” value [1] is reported as >13.2, the EC50 [1, 13] is reported as 7.6 µM and the EC50 ([2]; MDCK, 72 h) is reported as 3.2 µM. For the same compound, the EC50 ([4]; MDCK, 72 h) was 8.5 µM and the CC50 at 3 days [7] was > 100 µM.
`NC(=O)c1ncn([C@@H]2O[C@H](CO)[C@@H](O)[C@H]2O)n1` [RBV, Ribavirin, reference compound] showed an EC50 [1, 13] of 33.3 µM, an EC50 [6, 14] of 1.16 µM and a CC50 [9] of 5.46 µM.
With `CCC(CC)COC(=O)[C@H](C)N[P@](=O)(OC[C@H]1O[C@@](C#N)(c2ccc3c(N)ncnn23)[C@H](O)[C@@H]1O)Oc1ccccc1` [Remdesivir, reference compound] the CC50 [10] was > 100 µM.

Source: patent US20250171486A1, “N4-ISOBUTYRYLOXYCYTIDINE ANALOG SYNTHESIS AND COMPOSITION FOR TREATING VIRAL INFECTION COMPRISING ANTI-VIRAL USE THEREOF” (Dong-A University Research Foundation for Industry-Academy …, priority 2022, published 2025)
